Where a name gives a salt, the structure may show the parent alone.

From US8658665B2, “3,6-disubstituted xanthylium salts and use thereof in treatment of tauopathies” (WisTa Laboratories Ltd., priority 2008, dated 2014) come the findings set out here.

The target in data set [1] is T1, tau-tau binding: truncated tau (residues 297-390; dGA) on solid phase, full-length tau (T40) in aqueous phase (Homo sapiens, UniProt P10636).
T1 construct: truncated tau (residues 297-390; dGA); full-length tau (T40) was added in the aqueous phase
T1 sequence (P10636 614-707): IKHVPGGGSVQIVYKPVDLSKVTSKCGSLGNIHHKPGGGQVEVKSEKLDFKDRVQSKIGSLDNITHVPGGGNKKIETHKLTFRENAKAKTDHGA
The experiment in a line: In vitro assay for establishing B50 (tau-tau binding). To be noted: concentration required to inhibit tau-tau binding by 50%; mean ± SE, number of replications in parentheses; NE = no effect when tested to 500 μM. An excerpt: Briefly, a fragment of tau corresponding to the core repeat domain, which has been adsorbed to a solid phase substrate, is able to capture soluble full-length tau and bind tau with high affinity. This association confers stability against proteolytic digestion of the aggregated tau molecules.
The aqueous phase binding buffer contained 0.05% Tween-20 and 1% gelatine in phosphate-buffered saline (pH7.4).
The concentration of compound required to inhibit the tau-tau binding by 50% is referred to as the B50 value.

Data set [2] relates to fibroblast cells (3T6) expressing full-length tau (T40) and the 12 kD PHF-core tau fragment. The experiment in a line: Cell-based assay for establishing EC50 (inhibition of generation of the 12 kD tau fragment). An excerpt: In essence, fibroblast cells (3T6) express full-length tau (“T40”) under control of an inducible promotor, and low constitutive levels of the PHF-core tau fragment (12 kD fragment).
This is referred to as the EC50 value.

The next data set relates to fibroblast cells (3T6). To be noted: for LD50: cell numbers after 24 hrs exposure, lactate dehydrogenase assay kit, mean ± SE, number of replications in parentheses; for RxI: therapeutic index, RxI=LD50/EC50.

A word on the IC50: it is the concentration that gives 50% inhibition. Usually EC50 stands for the midpoint of the concentration-response curve. Lower therefore signals an effect from little substance. As to `CCN(CC)c1cc2oc3cc(N(CC)CC)cc4oc5cc(=[N+](CC)CC)cc6oc(c1)c2c(c34)c65` [AL, 2,6,10-tris-diethylamino-4,8,12-trioxatrianguleum hexafluorophosphate], in data set [1], the IC50 is 8.5 ± 0.9 µM. In data set [2], this molecule had an EC50 of 0.13 ± 0.07 µM. In the data set with fibroblast cells (3T6), the LD50 is on record as 8 ± 4 (6) μM and the RxI is 62.
Taken in the same sequence, the figures for `CCN(CC)c1ccc2nc3ccc(N(C)C)cc3nc2c1.Cl` [AM, 3-Diethylamino-7-dimethylaminophenazinium chloride] were 634 µM, 1.1 ± 0.24 µM, 93 ± 19 (6) μM and 85.
Taken in the same sequence, the figures for `CC[N+](CC)=c1ccc2nc3ccc(N(C)C)cc3oc-2c1` [AN, 3-Diethylamino-7-dimethylaminooxazinium perchlorate] were over 500 µM, 0.54 ± 0.08 µM, 167 ± 29 (6) μM and 309.
Taken in the same sequence, the figures for `FC(F)(F)C1=c2cc3c4c(c2Oc2c1cc1c5c2CCCN5CCC1)CCC[N+]=4CCC3` [C, 8-(trifluoromethyl)-2,3,5,6,11,12,14,15-octahydro-1H,4H,10H,13H-diquinolizino[9,9a,1-bc;9′,9a′1′-hi]xanthylium perchlorate] were 461 ± 130 µM, 0.47 µM, 5.99 ± 2.6 (4) μM and 13.
In the case of `[Cl-].c1c2c3c(c4[o+]c5c6c7c(cc5cc14)CCCN7CCC6)CCCN3CCC2` [Compound A, 2,3,6,7,12,13,16,17-Octahydro-1H,5H,11H,15H-diquinolizino[1,9-bc:1′,9′-hi]xanthylium chloride], in data set [1], the IC50 amounted to 33.8 ± 5.2 µM. The same molecule yielded an EC50 in data set [2] of 0.0061 ± 0.0024 µM. Besides, in the data set on fibroblast cells (3T6), the LD50 is given as 19 ± 2.7 (22) μM and the RxI is on record as 3115.
Taken in the same sequence, the figures for `CCN(CC)c1ccc(-c2c3ccc(=[N+](CC)CC)cc-3oc3cc(N(CC)CC)ccc23)cc1` [Compound AC] were 129 ± 11.9 µM, 1.43 ± 0.14 µM, 14.5 ± 8.4 (8) μM and 34.
The molecule `CCN(CC)c1ccc2c(-c3ccc([N+](=O)[O-])cc3)c3ccc(N(CC)CC)cc3[o+]c2c1.O=[N+]([O-])[O-]` [Compound AD, 3,6-Bis-diethylamino-9-(4-nitrophenyl)xanthylium nitrate] displayed an EC50 in data set [2] of 0.35 ± 0.1 µM. For the same molecule, in the data set with fibroblast cells (3T6), the LD50 is reported as 19 ± 9 (5) μM and the RxI turned out to be 54.
As to `CC1(C)CCN2CCC(C)(C)c3c4c(cc1c32)C=c1cc2c3c(c1O4)C(C)(C)CC[N+]=3CCC2(C)C` [Compound AE, 1,1,7,7,11,11,17,17-Octamethyl-2,3,6,7,12,13,16,17-octahydro-1H,5H,11H,15H-diquinolizino[1,9-bc;1′,9′-hi]xanthylium nitrate], the IC50 in data set [1] came to 324 ± 87.1 µM. Also, in data set [2], the EC50 was determined as 0.051 ± 0.012 µM. Also, in the data set on fibroblast cells (3T6), the LD50 is 21 ± 8 (7) μM and the RxI was 412.
Taken in the same sequence, the figures for `O=[N+]([O-])[O-].c1cc2cc3ccc(N4CCOCC4)cc3[o+]c2cc1N1CCOCC1` [Compound AF, 3,6-Bis-morpholino-xanthylium nitrate] were 187 ± 28.3 µM, 22 ± 4.2 µM, 144 ± 67 (10) μM and 7.
Taken in the same sequence, the figures for `O=[N+]([O-])[O-].c1cc2cc3ccc(N4CCCCC4)cc3[o+]c2cc1N1CCCCC1` [Compound AG, 3,6-Bis-piperidino-xanthylium nitrate] were 257 ± 50.3 µM, 1.12 ± 0.75 µM, 13.8 ± 6.2 (8) μM and 12.
Taken in the same sequence, the figures for `O=[N+]([O-])[O-].c1cc2cc3ccc(N4CCCC4)cc3[o+]c2cc1N1CCCC1` [Compound AH, 3,6-Bis-pyrrolidino-xanthylium nitrate] were 129 ± 15.5 µM, 0.26 ± 0.073 µM, 121 ± 52 (12) μM and 465.
Regarding `Cl.Cl.c1cc2c(cc1N1CCOCC1)Oc1cc(N3CCOCC3)ccc1C2` [Compound AI, 3,6-Bis-morpholino xanthene dihydrochloride], the IC50 in data set [1] was over 500 µM. In addition, the EC50 in data set [2] amounted to 16 ± 11 µM. Besides, in the data set on fibroblast cells (3T6), the LD50 is given as 280 ± 121 (10) μM and the RxI is listed as 17.
In the same order, the values of `Cl.Cl.c1cc2c(cc1N1CCCC1)Oc1cc(N3CCCC3)ccc1C2` [Compound AJ, 3,6-Bis-pyrrolidino xanthene dihydrochloride] are over 500 µM, 0.37 ± 0.1 µM, 125 ± 57 (10) μM and 334.
Taken in the same sequence, the figures for `Cl.Cl.c1cc2c(cc1N1CCCCC1)Oc1cc(N3CCCCC3)ccc1C2` [Compound AK, 3,6-Bis-piperidino xanthene dihydrochloride] were 284 ± 101 µM, 0.64 ± 0.27 µM, 44 ± 26 (8) μM and 69.
Consider `O=[N+]([O-])[O-].c1c2c3c(c4[o+]c5c6c7c(cc5cc14)CCCN7CCC6)CCCN3CCC2` [Compound B, 2,3,6,7,12,13,16,17-Octahydro-1H,5H,11H,15H-diquinolizino[1,9-bc:1′,9′-hi]xanthylium nitrate], for which the IC50 in data set [1] turned out to be 254 ± 26.4 µM. Also, in the data set with fibroblast cells (3T6), the LD50 is on record as 30.8 ± 4.6 (4) μM and the RxI was found to be 3802.
Turning to `CCN(CC)c1ccc2c(c1)Oc1cc(N(CC)CC)ccc1C2` [Compound H, 3,6-bis-diethylamino xanthene dihydrochloride], the IC50 in data set [1] is over 500 µM. The same molecule displayed an EC50 in data set [2] of 0.054 ± 0.01 µM. Besides, in the data set on fibroblast cells (3T6), the LD50 is 113 ± 18 (11) μM and the RxI came to 2093.
Taken in the same sequence, the figures for `CCc1c2ccc(N(CC)CC)cc2[o+]c2cc(N(CC)CC)ccc12.[Cl-]` [Compound J, 9-Ethyl-3,6-bis-diethylamino Xanthylium Chloride] were over 500 µM, 0.011 ± 0.006 µM, 17 ± 3 (10) μM and 1545.
Taken in the same sequence, the figures for `Cc1cc(N(C)C)cc2[s+]c3cc(N(C)C)cc(C)c3nc12` [DMMTC, reference compound] were 3.4 ± 0.2 µM, 0.04 ± 0.004 µM, 2.7 ± 1.2 (6) μM and 67.
With `CCN(CC)c1ccc2cc3ccc(N(CC)CC)cc3[s+]c2c1.[I-]` [K, 3,6-Bis(diethylamino)thioxanthylium Iodide], the IC50 in data set [1] was over 500 µM. Further, the EC50 in data set [2] was found to be 0.23 ± 0.13 µM. In addition, in the data set on fibroblast cells (3T6), the LD50 was 21.2 ± 12 (3) μM and the RxI stood at 91.
In the same order, the values of `CN(C)c1ccc2cc3ccc(N(C)C)cc3[s+]c2c1.[Cl-].[Cl-].[Cl-].[Zn+2]` [L, 3,6-bis(dimethylamino)thioxanthylium zinc trichloride] are 21.7 ± 2.7 µM, 0.3 µM, 22 ± 8.6 (3) μM and 73.
For `CN(C)c1ccc2nc3ccc(N(C)C)cc3[s+]c2c1` [MTC, reference compound], in data set [2], the midpoint of the response, the EC50, lay at 0.59 ± 0.04 µM.
With `CN(C)c1ccc2nc3ccc(=[N+](C)C)cc-3[nH]c2c1` [N, 3,7-Bis(dimethylamino)phenazinium chloride], the IC50 in data set [1] is 93.1 ± 17 µM. Further, in the data set on fibroblast cells (3T6), the LD50 is recorded as 136 ± 19.3 (4) μM.
Turning to `CN(C)c1ccc2nc3ccc(=[N+](C)C)cc-3oc2c1` [O, 3,7-bis(dimethylamino)oxazinium chloride], the IC50 in data set [1] was 190 ± 33.2 µM. This molecule also gave an EC50 in data set [2] of 3.9 ± 3.5 µM. Besides, in the data set on fibroblast cells (3T6), the LD50 was 115 ± 17 (9) μM and the RxI was determined as 29.
